Data reported in patent US8883782B2, “Spiro-tetracyclic ring compounds as beta-secretase modulators and methods of use” (Amgen Inc., priority 2010, dated 2014).
pIC50: −log10 of the molar value. Where two headings read alike, the source gives them in different places.

Tests used:
[1] = biological target: Beta Secretase enzyme (BACE) (Homo sapiens, UniProt P56817); assay: In vitro enzymatic BACE FRET (fluorescence resonance energy transfer) assay; type: biochemical; settings: average IC50, enzyme assay; read-out: BACE 1 FRET assay
Chain of Beta Secretase enzyme (BACE) (P56817 46-501, species assumed): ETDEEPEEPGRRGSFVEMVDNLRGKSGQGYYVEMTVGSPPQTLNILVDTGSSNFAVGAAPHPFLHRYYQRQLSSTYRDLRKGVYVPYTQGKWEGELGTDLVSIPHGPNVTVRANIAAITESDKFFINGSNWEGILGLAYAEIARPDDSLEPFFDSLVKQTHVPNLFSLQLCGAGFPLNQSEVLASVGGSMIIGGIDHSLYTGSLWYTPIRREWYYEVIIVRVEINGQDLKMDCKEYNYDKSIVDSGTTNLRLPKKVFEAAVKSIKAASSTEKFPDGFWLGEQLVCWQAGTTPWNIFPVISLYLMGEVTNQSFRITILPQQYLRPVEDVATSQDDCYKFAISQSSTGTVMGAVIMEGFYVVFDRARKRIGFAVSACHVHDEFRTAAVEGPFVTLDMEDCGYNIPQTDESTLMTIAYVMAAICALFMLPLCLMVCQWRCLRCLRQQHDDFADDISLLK
In short: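 A peptide bearing a fluorophore and quencher across the cleavage site serves as substrate at 50 nM. Reactions proceed one hour in acidic acetate buffer (0.05 M, pH 4.2) containing 10% DMSO final and 100 uM genapol, then are terminated with Tris and read fluorimetrically.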

[2] = tested on: Aβ40 in conditioned medium of cells stably expressing Amyloid Precursor Protein (APP); assay: In vitro BACE cell-based assay (Aβ40 in conditioned medium, sandwich ELISA); settings: Homo sapiens, read-out: HEK cell assay
In short: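 Conditioned medium from stably APP-expressing cells treated with compound dose series is assayed for Aβ40 by sandwich ELISA with time-resolved fluorescence detection. IC50 is calculated from percent inhibition of Aβ40 against compound concentration.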

[3] = HEK293, average IC50, HEK cells

| pIC50 [1] | pIC50 ([2]; HEK293, average IC50) | pIC50 [2, 3] | SMILES |
| --- | --- | --- | --- |
| 8.92 | 8.22 | – | COc1nc(C2=CCCOC2)cc2c1Oc1ccc(-c3cccnc3)cc1[C@@]21COC(N)=N1 [Example 841, (5S)-3-(5,6-dihydro-2H-pyran-3-yl)-1-methoxy-7-(3-pyridinyl)spiro[chromeno[2,3-c]pyridine-5,4′-[1,3]oxazol]-2′-amine] |
| 5.33 | ≤ 5.00 | – | CC1(C#Cc2cc3c(cc2OC(F)(F)F)Oc2ccc(-c4cccnc4F)cc2[C@]32COC(N)=N2)COC1 [Example 987, (4R)-7′-(2-fluoro-3-pyridinyl)-2′-((3-methyl-3-oxetanyl)ethynyl)-3′-(trifluoromethoxy)spiro[1,3-oxazole-4,9′-xanthen]-2-amine] |
| 8.85 | – | 7.31 | NC1=N[C@@]2(CO1)c1cc(-c3cccnc3F)ccc1Oc1nc(F)c(C3=CCCOC3)cc12 [Example 903, (5S)-3-(5,6-dihydro-2H-pyran-3-yl)-2-fluoro-7-(2-fluoro-3-pyridinyl)spiro[chromeno[2,3-b]pyridine-5,4′-[1,3]oxazol]-2′-amine] |
| 8.31 | 6.82 | – | CC(C)(O)C#Cc1cncc(-c2ccc3c(c2)[C@@]2(COC(N)=N2)c2cc(C4=CCOCC4)ncc2O3)c1 [Example 818, 4-(5-((5S)-2′-amino-3-(3,6-dihydro-2H-pyran-4-yl)spiro[chromeno[2,3-c]pyridine-5,4′-[1,3]oxazol]-7-yl)-3-pyridinyl)-2-methyl-3-butyn-2-ol] |
| 8.66 | – | 7.49 | NC1=N[C@@]2(CS1)c1cc(-c3ccc(F)nc3)ccc1Oc1ncc(C3=CCOCC3)cc12 [Example 966, (5S)-3-(3,6-dihydro-2H-pyran-4-yl)-7-(6-fluoro-3-pyridinyl)spiro[chromeno[2,3-b]pyridine-5,4′-[1,3]thiazol]-2′-amine] |
| 8.66 | 8.05 | – | CC#Cc1cncc(-c2ccc3c(c2)[C@@]2(CSC(N)=N2)c2cc(-c4ncccn4)cnc2O3)c1 [Example 789, (5S)-7-(5-(1-propyn-1-yl)-3-pyridinyl)-3-(2-pyrimidinyl)spiro[chromeno[2,3-b]pyridine-5,4′-[1,3]thiazol]-2′-amine] |

More lines, now with the values behind:

| SMILES | pIC50 [1] | pIC50 ([2]; HEK293, average IC50) | pIC50 [2, 3] |
| --- | --- | --- | --- |
| COCC1SC(N)=NC12c1cc(-c3cccnc3F)ccc1Oc1c(F)cc(OC)cc12 [Example 720, (4R)-4′-fluoro-7′-(2-fluoro-3-pyridinyl)-2′-methoxy-5-(methoxymethyl)spiro[1,3-thiazole-4,9′-xanthen]-2-amine, (4S)-4′-fluoro-7′-(2-fluoro-3-pyridinyl)-2′-methoxy-5-(methoxymethyl)spiro[1,3-thiazole-4,9′-xanthen]-2-amine] | 7.17 | 5.86 | – |
| CC1(C#Cc2cc3c(c(F)n2)Oc2ccc(-c4cccnc4F)cc2[C@]32COC(N)=N2)COC1 [Example 737, (5R)-1-fluoro-7-(2-fluoro-3-pyridinyl)-3-((3-methyl-3-oxetanyl)ethynyl)spiro[chromeno[2,3-c]pyridine-5,4′-[1,3]oxazol]-2′-amine] | 6.94 | 5.36 | – |
| COc1cncc(-c2ccc3c(c2)[C@@]2(COC(N)=N2)c2cc(C4=CCOCC4)ccc2O3)c1 [Example 194, (4R)-2′-(3,6-dihydro-2H-pyran-4-yl)-7′-(5-methoxy-3-pyridinyl)spiro[1,3-oxazole-4,9′-xanthen]-2-amine] | 8.10 | 7.56 | – |
| NC1=N[C@@]2(CO1)c1cc(-c3ccccc3)ccc1Oc1cnc(C3CCOCC3)cc12 [Example 238, (5S)-7-phenyl-3-(tetrahydro-2H-pyran-4-yl)spiro[chromeno[2,3-c]pyridine-5,4′-[1,3]oxazol]-2′-amine] | 7.39 | 6.78 | – |
| Cc1cnc(F)c(-c2ccc3c(c2)[C@@]2(COC(N)=N2)c2cc(N4CCC(F)(F)C4)ncc2O3)c1 [Example 421, (5S)-3-(3,3-difluoro-1-pyrrolidinyl)-7-(2-fluoro-5-methyl-3-pyridinyl)spiro[chromeno[2,3-c]pyridine-5,4′-[1,3]oxazol]-2′-amine] | 9.30 | – | 8.28 |
